From ChEMBL document CHEMBL4364251, “Design, synthesis and biological evaluation of new quinoline derivatives as potential antitumor agents” (Eur J Med Chem, 2019)

Columns and labels:
Format in all cases: functional, cell-based
HCT-116 = assay: Antiproliferative activity against human HCT116 cells incubated for 48 hrs by MTT assay; settings: HCT-116, 48 h
RKO = assay: Antiproliferative activity against human RKO cells incubated for 48 hrs by MTT assay
A2780 = assay: Antiproliferative activity against human A2780 cells incubated for 48 hrs by MTT assay; settings: A2780, 48 h
HeLa = assay: Antiproliferative activity against human HeLa cells incubated for 48 hrs by MTT assay
BGC-823 = assay: Antiproliferative activity against human BGC823 cells incubated for 48 hrs by MTT assay; settings: BGC-823, 48 h
A549 = assay: Antiproliferative activity against human A549 cells incubated for 48 hrs by MTT assay; settings: A549, 48 h
NCI-H1650 = assay: Antiproliferative activity against human NCI-H1650 cells incubated for 48 hrs by MTT assay; settings: NCI-H1650, 48 h

SMILES | IC50 (HCT-116) [µM] | IC50 (RKO) [µM] | IC50 (A2780) [µM] | IC50 (HeLa) [µM] | IC50 (BGC-823) [µM] | IC50 (A549) [µM] | IC50 (NCI-H1650) [µM]
C=CCOc1ccc2c(Nc3cccc(OC)c3)ccnc2c1 | > 10 | > 10 | 8.06 | 2.2 | 6.65 | > 10 | > 10
Clc1cccc(Nc2ccnc3cc(Br)ccc23)c1 | > 10 | > 10 | > 10 | > 10 | > 10 | > 10 | > 10
CC(C)Oc1ccc2c(Nc3cccc(F)c3)ccnc2c1 | > 10 | > 10 | 0.59 | 0.2 | > 10 | > 10 | > 10
COc1cccc(Nc2ccnc3cc(OC)ccc23)c1 | > 10 | > 10 | > 10 | > 10 | > 10 | > 10 | > 10
CCCCOc1ccc2c(Nc3cccc(Br)c3)ccnc2c1 | > 10 | > 10 | > 10 | 0.84 | > 10 | > 10 | > 10
CCCCOc1ccc2c(Nc3cccc([N+](=O)[O-])c3)ccnc2c1 | 6.83 | 7.81 | 5.17 | 4.35 | 6.11 | > 10 | 9.56
COc1cccc(Nc2ccnc3cc(Br)ccc23)c1 | > 10 | > 10 | > 10 | > 10 | > 10 | > 10 | > 10
Fc1ccc2c(Nc3cccc(Cl)c3)ccnc2c1 | > 10 | > 10 | > 10 | > 10 | > 10 | > 10 | > 10
Fc1ccc2c(Nc3cccc(Br)c3)ccnc2c1 | > 10 | > 10 | > 10 | > 10 | > 10 | > 10 | > 10
O=[N+]([O-])c1cccc(Nc2ccnc3cc(OCc4ccc(F)cc4)ccc23)c1 | 8.17 | 8.7 | 6.51 | 5.79 | 9.45 | 7.3 | 9.35
O=[N+]([O-])c1cccc(Nc2ccnc3cc(Cl)ccc23)c1 | > 10 | > 10 | > 10 | > 10 | > 10 | > 10 | > 10
Fc1cccc(Nc2ccnc3cc(OCCCc4ccccc4)ccc23)c1 | > 10 | > 10 | 4.62 | 0.25 | > 10 | > 10 | > 10
COc1ccc2c(Nc3ccc(Cl)c(Cl)c3)ccnc2c1 | > 10 | > 10 | > 10 | > 10 | > 10 | > 10 | > 10
C=CCOc1ccc2c(Nc3cccc([N+](=O)[O-])c3)ccnc2c1 | > 10 | > 10 | 6.77 | 0.22 | 3.83 | > 10 | > 10
CCOc1ccc2c(Nc3cccc([N+](=O)[O-])c3)ccnc2c1 | > 10 | > 10 | > 10 | 3.42 | > 10 | > 10 | > 10
COc1ccc2c(Nc3cccc(O)c3)ccnc2c1 | > 10 | > 10 | > 10 | > 10 | > 10 | > 10 | > 10
Fc1cccc(Nc2ccnc3cc(Cl)ccc23)c1 | > 10 | > 10 | > 10 | > 10 | > 10 | > 10 | > 10
CCOc1ccc2c(Nc3cccc(OC)c3)ccnc2c1 | > 10 | > 10 | 9.55 | 0.41 | > 10 | > 10 | > 10
Fc1cccc(Nc2ccnc3cc(OCc4ccccc4)ccc23)c1 | > 10 | > 10 | > 10 | > 10 | > 10 | > 10 | > 10
O=[N+]([O-])c1cccc(Nc2ccnc3cc(OCc4ccccc4)ccc23)c1 | 8.76 | 9.68 | 9.19 | 5.39 | 8.13 | 9.49 | 9.54
CCCCCCCCOc1ccc2c(Nc3cccc([N+](=O)[O-])c3)ccnc2c1 | > 10 | > 10 | > 10 | > 10 | > 10 | > 10 | > 10
CC(C)Oc1ccc2c(Nc3cccc([N+](=O)[O-])c3)ccnc2c1 | > 10 | > 10 | 1.47 | 0.52 | 8.39 | > 10 | > 10

SMILES | IC50 (HCT-116) [µM] | IC50 (RKO) [µM] | IC50 (A2780) [µM] | IC50 (HeLa) [µM] | IC50 (BGC-823) [µM] | IC50 (A549) [µM] | IC50 (NCI-H1650) [µM]
COc1ccc2c(Nc3cccc(Br)c3)ccnc2c1 | > 10 | > 10 | > 10 | > 10 | > 10 | > 10 | > 10
COc1cccc(Nc2ccnc3cc(Cl)ccc23)c1 | > 10 | > 10 | > 10 | > 10 | > 10 | > 10 | > 10
CCOc1ccc2c(Nc3cccc(F)c3)ccnc2c1 | > 10 | > 10 | > 10 | 0.68 | 9.85 | > 10 | > 10
C=CCOc1ccc2c(Nc3cccc(F)c3)ccnc2c1 | > 10 | > 10 | 1.19 | 0.31 | > 10 | > 10 | > 10
Fc1ccc(COc2ccc3c(Nc4cccc(F)c4)ccnc3c2)cc1 | > 10 | > 10 | > 10 | > 10 | > 10 | > 10 | > 10
COc1cccc(Nc2ccnc3cc(OCc4ccc(F)cc4)ccc23)c1 | > 10 | > 10 | > 10 | > 10 | > 10 | > 10 | > 10
COc1ccc2c(Nc3cccc([N+](=O)[O-])c3)ccnc2c1 | > 10 | > 10 | > 10 | > 10 | 7.45 | > 10 | > 10
CCCCCCCCOc1ccc2c(Nc3cccc(F)c3)ccnc2c1 | 9.3 | 9.54 | 9.75 | 4.3 | 5.96 | 9.52 | 9.45
Fc1cccc(Nc2ccnc3cc(F)ccc23)c1 | > 10 | > 10 | > 10 | > 10 | > 10 | > 10 | > 10
O=[N+]([O-])c1cccc(Nc2ccnc3cc(OCCCc4ccccc4)ccc23)c1 | 7.46 | 8.29 | 4.46 | 4.13 | 8.32 | 5.09 | 6.01
CCCCOc1ccc2c(Nc3cccc(OC)c3)ccnc2c1 | 7.68 | 8.1 | 8.87 | 6.56 | 7.26 | > 10 | 8.69
CCCCCCCCOc1ccc2c(Nc3cccc(OC)c3)ccnc2c1 | > 10 | > 10 | 8.21 | 7.72 | > 10 | > 10 | 8.13
Brc1cccc(Nc2ccnc3cc(Br)ccc23)c1 | > 10 | > 10 | > 10 | > 10 | > 10 | > 10 | > 10
O=[N+]([O-])c1cccc(Nc2ccnc3cc(Br)ccc23)c1 | > 10 | > 10 | > 10 | > 10 | > 10 | > 10 | > 10
COc1cccc(Nc2ccnc3cc(OC(C)C)ccc23)c1 | > 10 | > 10 | 0.65 | 0.23 | 4.73 | > 10 | > 10
CCCCOc1ccc2c(Nc3cccc(F)c3)ccnc2c1 | > 10 | > 10 | 8.2 | 1.43 | 9.42 | > 10 | > 10
COc1ccc2c(Nc3cccc(F)c3)ccnc2c1 | > 10 | > 10 | > 10 | > 10 | > 10 | > 10 | > 10
COc1cccc(Nc2ccnc3cc(OCc4ccccc4)ccc23)c1 | > 10 | > 10 | > 10 | > 10 | > 10 | > 10 | > 10
Fc1cccc(Nc2ccnc3cc(Br)ccc23)c1 | > 10 | > 10 | > 10 | > 10 | > 10 | > 10 | > 10
O=[N+]([O-])c1cccc(Nc2ccnc3cc(F)ccc23)c1 | > 10 | > 10 | > 10 | > 10 | > 10 | > 10 | > 10
COc1cccc(Nc2ccnc3cc(F)ccc23)c1 | > 10 | > 10 | > 10 | > 10 | > 10 | > 10 | > 10
